Drawing on a melting point compilation (Tetko et al.; mined from patent text by program, amines drawn as free bases though some values may be those of a salt), this text covers melting point for 63 molecules.

Broadly, the melting point is the temperature of the solid-liquid transition. Take `O=S1(=O)C=C(N2CCCCC2)c2ccccc2O1`: the melting point is 187 to 189 °C. With `Oc1ccc(Cl)cc1CCc1ccccn1` the figure was 135 to 137 °C; with `CC1(N)CN(c2nc3c(cc2F)c(=O)c(C(=O)O)cn3C2CC2)C1`, 285 to 287 °C; with `CCCN(CCCC12CC3CC(CC(C3)C1)C2)C(=O)NCc1ccncc1`, 96 to 98 °C. As for `OC(CCl)COc1cccc(-c2nc(C(F)(F)F)c[nH]2)c1` (stereo not drawn), the figure is 181 to 183 °C; as for `Cc1ccc(C2c3c(C)c(N4CCN(c5ccc(C#N)cc5)CC4)c(C)c(C)c3OC2(C)C)cc1` (stereo not drawn), 216 to 217 °C; as for `CC(C)Oc1ccc(Cc2ccc(NC3=NCCN3)cc2)s1`, 134 to 135 °C. With `COC(=O)COc1ccc(C(C)=O)c(O)c1` the figure was 101 to 103 °C; with `CCN1CC2CCCC2C1CNC(=O)c1cc(Cl)c(NC(C)=O)cc1OC` (stereo not drawn), 156 to 157 °C. In turn, `CCC1(Cc2ccc(O)cc2)NC(=O)NC1=O` (stereo not drawn) had a melting point of 236 to 238 °C.

Molecule `CCC(=O)Oc1cccc2c1C(=O)c1c(OC(=O)CC)cccc1C2C(=O)CC` gave a melting point of 125 °C. `CNC(=O)NCCN1CCC(Nc2nc3ccccc3n2Cc2ccc(F)cc2)CC1` showed a melting point of 231 °C. As for `NS(=O)(=O)c1cc(Cl)c(Cl)cc1OC(F)(F)F`, the figure is 181 to 185 °C; as for `O=C(CCCCl)Nc1ccc2c(c1)C(=O)c1cc(NC(=O)CCCCl)ccc1C2=O`, 234 °C; as for `O=C(NC(=O)N1CCCCC1)c1cc(Cl)nc(Cl)c1`, 183 to 185 °C. Turning to `O=c1cc(-c2cc(F)c(O)c(F)c2)oc2ccccc12`, the melting point lay within 275 to 276 °C. With `COC(=O)c1cc2cc([N+](=O)[O-])ccc2o1` the figure was 168 °C; with `COc1cccc(NN=C(Sc2ccc(Cl)cc2)C(C)=O)c1`, 107 to 108 °C. As for `O=C(Nc1ccc(-n2nc(C(F)(F)F)cc2C(F)(F)F)cc1)c1cc2cc(F)ccc2[nH]1`, the figure is 253 to 255 °C.

For `COC(=O)C(O)=CC(=O)N(Cc1ccc(F)cc1)Cc1ccc(F)cc1`, the melting point was in the range of 118 to 120 °C.

`CN(C)CCCCCCCOc1ccc2oc(-c3ccccc3)cc(=O)c2c1`: the melting point fell in the range of 90 to 91 °C. As for `CC(C)(c1ccc(OS(=O)(=O)c2ccccc2)cc1)c1ccc(OS(=O)(=O)c2ccccc2)cc1`, the figure is 92 to 93 °C. As for `COC(=O)Oc1ccc(C=Nc2ccc(C#N)cc2)cc1`, the figure is 139 °C; as for `Cc1cc(CBr)c(CBr)cc1C`, 116 to 120 °C. `N#Cc1c(-c2cccs2)nn(-c2ccccc2)c1N` yielded a melting point of 165 to 167 °C. Regarding `COc1ccc(Oc2c(C)cc(CO)cc2C)cc1C(C)C`, the melting point lay within 78 to 80 °C.

`NN(Cc1ccccc1)C(=S)Nc1ccccc1` registered a melting point of 121 to 123 °C.

With `Cc1sc2c(c1CCN1CCC(c3noc4cc(F)ccc34)CC1)CCN(C(=O)c1ccccc1)C2`, the melting point was 192 to 195 °C. As for `CCCCNC(=O)NS(=O)(=O)CCc1c(C)nn(C)c1-n1ccc2cc(C(F)(F)F)cnc21`, the figure is 163 to 164 °C. As for `CC(C)C(NC(=O)Cn1cccc(NC(=O)Cc2ccccc2)c1=O)C(=O)C(F)(F)F` (stereo not drawn), the melting point is 70 to 72 °C. With `CC(C)(C)c1ccc2[nH]c(C(=O)c3ccc(Cl)cc3)c(CC(=O)O)c2c1`, the melting point was 171 °C.

With `CNC(=O)c1ccccc1-c1nc(-c2ccccc2)no1`, the melting point lay within 145 to 146 °C. With `Cc1[nH]cnc1CC1CCc2c(C)c3ccccc3n2C1=O` (stereo not drawn) the figure was 226 to 229 °C; with `O=S(CSc1ccc(Cl)cc1)c1ccccc1` (stereo not drawn), 70 to 71 °C; with `Cc1cccc2c1N(CC(=O)N1CC3CCC(CC3)C1)C(=O)C(NC(=O)Nc1cccc(C=NO)c1)N=C2c1ccccc1F` (stereo not drawn), 196 to 199 °C. With `CCCCCN(C(=O)Nc1ccc(C(=O)O)cn1)c1ccc2c(c1)C(C)(C)CCC2(C)C` the figure was 175 to 180 °C. As for `O=[N+]([O-])CS(=O)(=O)c1ccc2c(c1)CCN2`, the figure is 139 °C; as for `Cc1c(C(=O)O)cnn1-c1ccc(F)cc1F`, 183 to 184 °C; as for `CCOC(=O)c1cnn2c(NCc3ccc(-c4ccccc4C#N)cc3)ccnc12`, 148 to 150 °C. In the case of `CCCc1c(OCCCCCc2ccc(OC)c(OC)c2)ccc(C(C)=O)c1O`, the melting point was 72 to 75 °C. `COc1ccc(N2CCN(c3ccc(N=C=S)cc3)CC2)cc1` displayed a melting point of 181 °C. As for `CCOC(=O)NCCOc1cc(Oc2ccc(C(F)(F)F)cc2Cl)ccc1[N+](=O)[O-]`, the figure is 70 to 71 °C. As for `CCN(CCCN1CCN(c2ccccc2OC)CC1)C1CCc2ncsc2C1` (stereo not drawn), the melting point is 64 °C. As for `Cc1oc2c(C)c(Cc3ccccc3)c(C3CC(=O)NC(=O)C3)cc2c1C`, the figure is 138 °C; as for `Cc1cccc(NC(=O)NCC2(c3ccccc3)CCCCC2)c1`, 145 to 147 °C. The molecule `CCOC(=O)C(C#N)(Cc1ccc(OC)c(OC)c1)C(OCC)OCC` (stereo not drawn) yielded a melting point of 62 to 65 °C. In the case of `CCOc1ccc2[nH]c(=O)n(C3CCCCC3)c2c1`, the melting point was determined as 203 °C. Molecule `Cn1c(C(F)(F)F)cc(=O)n(-c2ccc3snc(CP(=O)(O)O)c3c2)c1=O` returned a melting point of more than 230 °C. With `CCCCCNC(=S)NC(Cc1ccc(OC)cc1)=Nc1ccccc1` the figure was 125 to 126 °C; with `Cc1n[nH]c2c1CCc1[nH]ncc1-2`, 250 to 252 °C.

`Cc1c(C=O)c2cc(Cl)ccc2n1-c1ccc(O)cc1` had a melting point of more than 240 °C. For `O=C(O)c1ccc2oc3ccccc3c(=O)c2c1`, the melting point was more than 280 °C.

As to `Nc1nccc2[nH]cnc12`, the melting point lay in the range of 260 to 262 °C. With `CC12CCC(O)CC1=CCC1C2C(O)CC2(C)C1CCC21OCCO1` (stereo not drawn) the figure was 123 to 125 °C; with `COc1ccc(Oc2cccc3c2C2(COc4cc5c(cc42)OCCO5)C(=O)N3C)cc1` (stereo not drawn), 55 to 58 °C. With `Cc1oc(-c2ccccc2)nc1COc1nn(Cc2ccc(Oc3ccccc3)cc2)cc1CO` the figure was 103 to 104 °C; with `CCCCN(Cc1ccc(-c2ccccc2-c2nnnn2C(c2ccccc2)(c2ccccc2)c2ccccc2)cc1)c1nc(C)cc(C)n1`, 131 to 133 °C. With `Cc1c(-c2cn(C)c3c(-c4ccccc4)cccc23)nc2ccc(F)cc2c1C(=O)O`, the melting point was in the range of 107 to 108 °C. As for `Cc1cccc(CC2CNC(=O)O2)c1` (stereo not drawn), the melting point was in the range of 89 to 90.5 °C. As for `CCc1nc2c(N)nc(C)c(C)c2n1NC1CCCCC1`, the figure is 190 to 192 °C; as for `Cc1cc2c(-c3ccccc3)c(CC#N)n(C)c(=O)c2cc1C`, 186 to 188 °C; as for `CC(=O)N(C)c1c(I)c(N)c(I)c(C(=O)N(C)C)c1I`, 235 to 240 °C. Molecule `COC(=O)c1ccc(-c2ccc(C(F)(F)F)cc2)c(COC(C)=O)c1` showed a melting point of 94 °C.
